Source: US7371766B2, “Curcumin analogs with anti-tumor and anti-angiogenic properties” (Emory University, priority 1999, dated 2008)

Experiments:
SW-620 = conditions: read-out: Median Growth Inhibitory Concentration (GI50); SW-620, Colon Cancer; 48 hours
OVCAR-4 = conditions: read-out: Median Growth Inhibitory Concentration (GI50); OVCAR-4, Ovarian Cancer; 48 hours
KM12 = conditions: read-out: Median Growth Inhibitory Concentration (GI50); KM12, Colon Cancer; 48 hours
NCI-H460 = conditions: read-out: Median Growth Inhibitory Concentration (GI50); NCI-H460, Non-Small Cell Lung Cancer; 48 hours
UACC-257 = conditions: read-out: Median Growth Inhibitory Concentration (GI50); UACC-257, Melanoma; 48 hours
EKVX = conditions: read-out: Median Growth Inhibitory Concentration (GI50), Non-Small Cell Lung Cancer, 48 hours
HCT-15 = conditions: read-out: Median Growth Inhibitory Concentration (GI50); HCT-15, Colon Cancer; 48 hours
OVCAR-8 = conditions: read-out: Median Growth Inhibitory Concentration (GI50); OVCAR-8, Ovarian Cancer; 48 hours
M14 = conditions: read-out: Median Growth Inhibitory Concentration (GI50); M14, Melanoma; 48 hours
BT-549 = conditions: read-out: Median Growth Inhibitory Concentration (GI50); BT-549, Breast Cancer; 48 hours
IGROV1 = conditions: read-out: Median Growth Inhibitory Concentration (GI50); IGROV1, Ovarian Cancer; 48 hours
UACC-62 = conditions: read-out: Median Growth Inhibitory Concentration (GI50); UACC-62, Melanoma; 48 hours
CCRF-CEM = conditions: read-out: Median Growth Inhibitory Concentration (GI50), Leukemia, 48 hours
HCC-2998 = conditions: read-out: Median Growth Inhibitory Concentration (GI50); HCC-2998, Colon Cancer; 48 hours
MALME-3M = conditions: read-out: Median Growth Inhibitory Concentration (GI50), Melanoma, 48 hours
SR = conditions: read-out: Median Growth Inhibitory Concentration (GI50), Leukemia, 48 hours
SNB-75 = conditions: read-out: Median Growth Inhibitory Concentration (GI50); SNB-75, CNS Cancer; 48 hours
T-47D = conditions: read-out: Median Growth Inhibitory Concentration (GI50), Breast Cancer, 48 hours
UO-31 = conditions: read-out: Median Growth Inhibitory Concentration (GI50); UO-31, Renal Cancer; 48 hours
SK-MEL-5 = conditions: read-out: Median Growth Inhibitory Concentration (GI50); SK-MEL-5, Melanoma; 48 hours
SF-539 = conditions: read-out: Median Growth Inhibitory Concentration (GI50); SF-539, CNS Cancer; 48 hours
OVCAR-3 = conditions: read-out: Median Growth Inhibitory Concentration (GI50); OVCAR-3, Ovarian Cancer; 48 hours
MDA-MB-231 = conditions: read-out: Median Growth Inhibitory Concentration (GI50); MDA-MB-231, Breast Cancer; 48 hours
SF-268 = conditions: read-out: Median Growth Inhibitory Concentration (GI50); SF-268, CNS Cancer; 48 hours
OVCAR-5 = conditions: read-out: Median Growth Inhibitory Concentration (GI50); OVCAR-5, Ovarian Cancer; 48 hours
NCI-H23 = conditions: read-out: Median Growth Inhibitory Concentration (GI50); NCI-H23, Non-Small Cell Lung Cancer; 48 hours
ACHN = conditions: read-out: Median Growth Inhibitory Concentration (GI50), Renal Cancer, 48 hours
SK-OV-3 = conditions: read-out: Median Growth Inhibitory Concentration (GI50); SK-OV-3, Ovarian Cancer; 48 hours
A498 = conditions: read-out: Median Growth Inhibitory Concentration (GI50); A498, Renal Cancer; 48 hours
NCI/ADR-RES = conditions: read-out: Median Growth Inhibitory Concentration (GI50), Breast Cancer, 48 hours
MDA-N = conditions: read-out: Median Growth Inhibitory Concentration (GI50), Breast Cancer, 48 hours

## N.N.[Cl][Pt][Cl] [Cisplatin, reference compound]
SW-620
  GI50: 0.8 µM
OVCAR-4
  GI50: 0.3 µM
KM12
  GI50: 2 µM
NCI-H460
  GI50: 0.1 µM
UACC-257
  GI50: 1 µM
EKVX
  GI50: 1.6 µM
HCT-15
  GI50: 1.6 µM
OVCAR-8
  GI50: 1 µM
M14
  GI50: 0.3 µM
BT-549
  GI50: 1.3 µM
IGROV1
  GI50: 0.6 µM
UACC-62
  GI50: 0.3 µM
CCRF-CEM
  GI50: 0.2 µM
HCC-2998
  GI50: 0.1 µM
MALME-3M
  GI50: 0.2 µM
SR
  GI50: 0.1 µM
SNB-75
  GI50: 0.6 µM
T-47D
  GI50: 2 µM
UO-31
  GI50: 0.8 µM
SK-MEL-5
  GI50: 0.5 µM
SF-539
  GI50: 0.4 µM
OVCAR-3
  GI50: 1 µM
MDA-MB-231
  GI50: 3.2 µM
SF-268
  GI50: 0.2 µM
OVCAR-5
  GI50: 1.3 µM
NCI-H23
  GI50: 0.1 µM
ACHN
  GI50: 0.5 µM
SK-OV-3
  GI50: 1.3 µM
A498
  GI50: 2 µM
NCI/ADR-RES
  GI50: 0.8 µM
MDA-N
  GI50: 0.8 µM
